From patent US8906852B2 (MethylGene Inc., priority 2010, dated 2014)
Counter-ions that a name gives are not always drawn.

Each compound was assayed against T1, VEGFR/KDR (Homo sapiens, UniProt P35968) (assay: VEGFR/KDR kinase inhibition, DELFIA assay). Conditions: ATP 0.6 uM (2x Km), enzyme 5 nM.
T1 construct: made in house; host or cells: Sf9 cells (Spodoptera frugiperda), baculovirus
Format: biochemical
Outline: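 DELFIA time-resolved fluorescence readout using Europium-tagged anti-phosphotyrosine antibody after EDTA stop. Kinase reaction on plate-bound poly(Glu4,Tyr) ran 10-30 min at 30° C with 5 nM enzyme and 0.6 uM ATP (2× Km), following 4 min on-ice pre-incubation with compound; IC50 over a concentration range.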

T1 sequence (P35968 806-1356): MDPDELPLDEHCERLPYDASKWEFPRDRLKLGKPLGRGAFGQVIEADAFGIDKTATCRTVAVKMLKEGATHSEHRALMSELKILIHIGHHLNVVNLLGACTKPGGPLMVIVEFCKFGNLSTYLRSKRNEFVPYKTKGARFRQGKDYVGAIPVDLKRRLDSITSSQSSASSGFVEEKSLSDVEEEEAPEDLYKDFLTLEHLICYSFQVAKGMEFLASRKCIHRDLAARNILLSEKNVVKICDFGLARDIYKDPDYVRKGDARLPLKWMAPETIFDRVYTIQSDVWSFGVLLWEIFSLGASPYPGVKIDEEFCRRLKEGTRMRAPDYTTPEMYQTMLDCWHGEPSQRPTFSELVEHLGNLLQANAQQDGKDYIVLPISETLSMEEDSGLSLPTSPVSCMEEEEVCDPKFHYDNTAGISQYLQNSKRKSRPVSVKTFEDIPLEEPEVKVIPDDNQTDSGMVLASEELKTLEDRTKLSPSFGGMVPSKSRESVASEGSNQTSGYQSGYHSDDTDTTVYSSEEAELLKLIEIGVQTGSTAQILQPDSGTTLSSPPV

SMILES | IC50
O=C(Nc1ccc(Oc2ccnc3cc(-c4ccc(C(=O)N5CCN(CCN6CCOCC6)CC5)cn4)sc23)c(F)c1)NC1CC1 [Compound 231, 1-cyclopropyl-3-(3-fluoro-4-(2-(5-(4-(2-morpholinoethyl)piperazine-1-carbonyl)pyridin-2-yl)thieno[3,2-b]pyridin-7-yloxy)phenyl)urea] | < 50 nM
CN1CCN(CCNC(=O)c2ccc(-c3cc4nccc(Oc5ccc(NC(=O)NC6CC6)cc5F)c4s3)nc2)CC1 [Compound 233, 6-(7-(4-(3-cyclopropylureido)-2-fluorophenoxy)thieno[3,2-b]pyridin-2-yl)-N-(2-(4-methylpiperazin-1-yl)ethyl)nicotinamide formate salt] | < 50 nM
O=C(Nc1ccc(Oc2ccnc3cc(-c4ccc(C(=O)NCCN5CCOCC5)cn4)sc23)c(F)c1)NC1CC1 [Compound 235, 6-(7-(4-(3-cyclopropylureido)-2-fluorophenoxy)thieno[3,2-b]pyridin-yl)-N-(2-morpholinoethyl)nicotinamide] | < 50 nM
O=C(Nc1ccc(Oc2ccnc3cc(-c4ccc(C(=O)N5CCCC(C(=O)O)C5)cn4)sc23)c(F)c1)NC1CC1 (stereo not drawn) [Compound 240, 1-(6-(7-(4-(3-cyclopropylureido)-2-fluorophenoxy)thieno[3,2-b]-pyridin-2-yl)nicotinoyl)piperidine-3-carboxylic acid] | < 50 nM
O=C(Nc1ccc(Oc2ccnc3cc(-c4ccc(C(=O)N5CCOC(C(=O)O)C5)cn4)sc23)c(F)c1)NC1CC1 (stereo not drawn) [Compound 241, 4-(6-(7-(4-(3-cyclopropylureido)-2-fluorophenoxy)thieno[3,2-b]-pyridin-2-yl)nicotinoyl)morpholine-2-carboxylic acid] | < 50 nM
COCCNCCn1cc(-c2cc3nccc(Oc4ccc(NC(=O)NC5CC5)cc4F)c3s2)cn1 [Compound 247, 1-cyclopropyl-3-(3-fluoro-4-(2-(1-(2-(2-methoxyethylamino)ethyl)-1H-pyrazol-4-yl)thieno[3,2-b]pyridin-7-yloxy)phenyl)urea] | < 50 nM
COCCN(CCn1cnc(-c2cc3nccc(Oc4ccc(NC(=O)NC5CC5)cc4F)c3s2)c1)C(C)=O [Compound 254-A, N-(2-(4-(7-(4-(3-cyclopropylureido)-2-fluorophenoxy)-thieno[3,2-b]pyridin-2-yl)-1H-imidazol-1-yl)ethyl)-N-(2-methoxyethyl)acetamide] | < 50 nM
CCNC(=O)N(CCOC)CCn1cnc(-c2cc3nccc(Oc4ccc(NC(=O)NC5CC5)cc4F)c3s2)c1 [Compound 256, N-(2-(4-(7-(4-(3-cyclopropylureido)-2-fluorophenoxy)thieno[3,2-b]-pyridin-2-yl)-1H-imidazol-1-yl)ethyl)-N-(1-ethyl)-N-[3-(2-methoxyethyl)]urea] | < 50 nM
COCCN(CCn1cnc(-c2cc3nccc(Oc4ccc(NC(=O)NC5CC5)cc4F)c3s2)c1)C(=O)CO [Compound 258, N-(2-(4-(7-(4-(3-cyclopropylureido)-2-fluorophenoxy)thieno[3,2-b]-pyridin-2-yl)-1H-imidazol-1-yl)ethyl)-2-hydroxy-N-(2-methoxyethyl)acetamide] | < 50 nM
CN1CCN(CCn2cnc(-c3cc4nccc(Oc5ccc(NC(=O)NC6CC6)cc5F)c4s3)c2)CC1 [Compound 266, 1-Cyclopropyl-3-(3-fluoro-4-(2-(1-(2-(4-methylpiperazin-1-yl)ethyl)-1H-imidazol-4-yl)thieno[3,2-b]pyridin-7-yloxy)phenyl)urea] | < 50 nM
O=C(O)CCC(=O)N1CC=C(c2cc3nccc(Oc4ccc(NC(=O)NC5CC5)cc4F)c3s2)CC1 [Compound 273, 4-(4-(7-(4-(3-cyclopropylureido)-2-fluorophenoxy)thieno[3,2-b]pyridin-2-yl)-5,6-dihydropyridin-1(2H)-yl)-4-oxobutanoic acid] | ≥ 250 nM
COCCOCC(=O)N1CC=C(c2cc3nccc(Oc4ccc(NC(=O)NC5CC5)cc4F)c3s2)CC1 [Compound 274] | < 50 nM
CS(=O)(=O)N1CC=C(c2cc3nccc(Oc4ccc(NC(=O)NC5CC5)cc4F)c3s2)CC1 [Compound 275, 1-cyclopropyl-3-(3-fluoro-4-(2-(1-(methylsulfonyl)-1,2,3,6-tetrahydropyridin-4-yl)thieno[3,2-b]pyridin-7-yloxy)phenyl)urea] | < 50 nM
O=C(Nc1ccc(Oc2ccnc3cc(C4=CCN(CCCN5CCOCC5)CC4)sc23)c(F)c1)NC1CC1 [Compound 276, 1-cyclopropyl-3-(3-fluoro-4-(2-(1-(3-morpholinopropyl)-1,2,3,6-tetrahydropyridin-4-yl)thieno[3,2-b]pyridin-7-yloxy)phenyl)urea] | 50 to 100 nM
O=C(Nc1ccc(Oc2ccnc3cc(-c4ccc(CN5CCCC5=O)nc4)sc23)c(F)c1)NC1CC1 [Compound 283, 1-cyclopropyl-3-(3-fluoro-4-(2-(6-((2-oxopyrrolidin-1-yl)methyl)pyridin-3-yl)thieno[3,2-b]pyridin-7-yloxy)phenyl)urea] | < 50 nM
O=C(Nc1ccc(Oc2ccnc3cc(-c4ccc(CCN5CCCC5=O)cn4)sc23)c(F)c1)NC1CC1 [Compound 295, 1-cyclopropyl-3-(3-fluoro-4-(2-(5-(2-(2-oxopyrrolidin-1-yl)ethyl)pyridin-2-yl)thieno[3,2-b]pyridin-7-yloxy)phenyl)urea] | < 50 nM
Cn1c(CN2CCOCC2)cnc1-c1cc2nccc(Oc3ccc(NC(=O)NC4CC4)cc3F)c2s1 [Compound 298] | < 50 nM
CC(C)NC(=O)Nc1ccc(Oc2ccnc3cc(-c4ncc(CN5CCOCC5)n4C)sc23)c(F)c1 [Compound 299, 1-(3-fluoro-4-(2-(1-methyl-5-(morpholinomethyl)-1H-imidazol-2-yl)thieno[3,2-b]pyridin-7-yloxy)phenyl)-3-isopropylurea] | < 50 nM

Results, then the compound that gave them:

IC50 | SMILES
< 50 nM | CCOC(=O)CCN1CCN(C(=O)c2ccc(-c3cc4nccc(Oc5ccc(NC(=O)NC6CC6)cc5F)c4s3)nc2)CC1 [Compound 236, ethyl 3-(4-(6-(7-(4-(3-cyclopropylureido)-2-fluorophenoxy)thieno-[3,2-b]pyridin-2-yl)nicotinoyl)piperazin-1-yl)propanoate]
< 50 nM | CCOC(=O)C1CCCN(C(=O)c2ccc(-c3cc4nccc(Oc5ccc(NC(=O)NC6CC6)cc5F)c4s3)nc2)C1 (stereo not drawn) [Compound 237, ethyl 1-(6-(7-(4-(3-cyclopropylureido)-2-fluorophenoxy)thieno-[3,2-b]pyridin-2-yl)nicotinoyl)piperidine-3-carboxylate]
< 50 nM | CCCCOC(=O)C1CN(C(=O)c2ccc(-c3cc4nccc(Oc5ccc(NC(=O)NC6CC6)cc5F)c4s3)nc2)CCO1 (stereo not drawn) [Compound 238, butyl 4-(6-(7-(4-(3-cyclopropylureido)-2-fluorophenoxy)thieno[3,2-b]pyridin-2-yl)nicotinoyl)morpholine-2-carboxylate]
< 50 nM | O=C(O)CCN1CCN(C(=O)c2ccc(-c3cc4nccc(Oc5ccc(NC(=O)NC6CC6)cc5F)c4s3)nc2)CC1 [Compound 239, 3-(4-(6-(7-(4-(3-cyclopropylureido)-2-fluorophenoxy)thieno[3,2-b]pyridin-2-yl)nicotinoyl)piperazin-1-yl)propanoic acid tetraacetate]
< 50 nM | COCCN(CCn1cc(-c2cc3nccc(Oc4ccc(NC(=O)NC5CC5)cc4F)c3s2)cn1)C(C)=O [Compound 254, N-(2-(4-(7-(4-(3-cyclopropylureido)-2-fluorophenoxy)thieno[3,2-b]pyridine-2-yl)-1H-pyrazol-1-yl)ethyl)-N-(2-methoxyethyl)acetamide]
50 to 100 nM | CCNC(=O)N(CCOC)CCn1cc(-c2cc3nccc(Oc4ccc(NC(=O)NC5CC5)cc4F)c3s2)cn1 [Compound 255, N-(2-(4-(7-(4-(3-cyclopropylureido)-2-fluorophenoxy)thieno[3,2-b]-pyridine-2-yl)-1H-pyrazol-1-yl)ethyl)-N-(1-ethyl)-N-[3-(2-methoxyethyl)]urea]
< 50 nM | COCCN(CCn1cc(-c2cc3nccc(Oc4ccc(NC(=O)NC5CC5)cc4F)c3s2)cn1)C(=O)CO [Compound 257, N-(2-(4-(7-(4-(3-cyclopropylureido)-2-fluorophenoxy)thieno[3,2-b]-pyridin-2-yl)-1H-pyrazol-1-yl)ethyl)-2-hydroxy-N-(2-methoxyethyl)acetamide]
< 50 nM | COCCOCCOCCOCCN(Cc1ccc(-c2cc3nccc(Oc4ccc(NC(=O)NC5CC5)c(F)c4F)c3s2)nc1)C(=O)CO [Compound 259, N-((6-(7-(4-(3-cyclopropylureido)-2,3-difluorophenoxy)thieno-[3,2-b]pyridin-2-yl)pyridin-3-yl)methyl)-2-hydroxy-N-(2,5,8,11-tetraoxatridecan-13-yl)acetamide]
< 50 nM | COCCN(Cc1ccc(-c2cc3nccc(Oc4ccc(NC(=O)NC5CC5)c(F)c4F)c3s2)nc1)C(=O)CO [Compound 259-A, N-((6-(7-(4-(3-cyclopropylureido)-2,3-difluorophenoxy)thieno[3,2-d]pyridin-2-yl)pyridin-3-yl)methyl)-2-hydroxy-N-(2-methoxyethyl)acetamide]
< 50 nM | O=C(Nc1ccc(Oc2ccnc3cc(-c4cn(CCN5CCCC5=O)cn4)sc23)c(F)c1)NC1CC1 [Compound 267, 1-cyclopropyl-3-(3-fluoro-4-(2-(1-(2-(2-oxopyrrolidin-1-yl)ethyl)-1H-imidazol-4-yl)thieno[3,2-b]pyridin-7-yloxy)phenyl)urea]
50 to 100 nM | O=C(Nc1ccc(Oc2ccnc3cc(C4=CCNCC4)sc23)c(F)c1)NC1CC1 [Compound 271-A, 1-Cyclopropyl-3-(3-fluoro-4-(2-(1,2,3,6-tetrahydropyridin-4-yl)thieno[3,2-b]pyridin-7-yloxy)phenyl)urea]
100 to 250 nM | O=C(Nc1ccc(Oc2ccnc3cc(C4=CCN(CCCCO)CC4)sc23)c(F)c1)NC1CC1 [Compound 277, 1-cyclopropyl-3-(3-fluoro-4-(2-(1-(4-hydroxybutyl)-1,2,3,6-tetrahydropyridin-4-yl)thieno[3,2-b]pyridin-7-yloxy)phenyl)urea]
